Legend:
[1] = system: Serratia marcescens; assay: MIC aerobic screen, BA-2 agar; conditions: Table II, additional tests
[2] = system: Enterobacter cloacae; assay: MIC aerobic screen, BA-2 agar; conditions: Table II, additional tests; strain 10,459
[3] = system: Staphylococcus aureus; assay: MIC aerobic screen, BA-2 agar; conditions: Table II, additional tests
[4] = system: Acinetobacter calcoaceticus; assay: MIC aerobic screen, BA-2 agar; conditions: Table II, additional tests; strain 8333
[5] = system: Klebsiella pneumoniae; assay: MIC aerobic screen, BA-2 agar; conditions: Table II, additional tests; strain 11,066
[6] = system: Proteus rettgeri; assay: MIC aerobic screen, BA-2 agar; conditions: Table II, additional tests; strain 8217
[7] = system: Escherichia coli; assay: MIC aerobic screen, BA-2 agar; conditions: Table II, additional tests
[8] = system: Klebsiella aerogenes; assay: MIC aerobic screen, BA-2 agar; conditions: Table II, additional tests; strain 10,436
[9] = system: Proteus morganii; assay: MIC aerobic screen, BA-2 agar; conditions: Table II, additional tests; strain 9774
[10] = system: Shigella sonnei; assay: MIC aerobic screen, BA-2 agar; format: cell-based; conditions: Table II, additional tests; strain 8449
[11] = system: Streptococcus faecalis; assay: MIC aerobic screen, BA-2 agar; conditions: Table II, additional tests; strain 9011
[12] = solubility; format: physicochemical; conditions: acetonitrile
[13] = system: Pseudomonas aeruginosa; assay: MIC aerobic screen, BA-2 agar; conditions: Table II, additional tests
[14] = system: Salmonella typhimurium; assay: MIC aerobic screen, BA-2 agar; conditions: Table II, additional tests; strain 9201

For CC1(O)CC(C(N)=O)N=C1c1ncccc1O (stereo not drawn) [EM4940B, 2,4-cis-3,4-dihydro-4-hydroxy-5-(3-hydroxy-2-pyridinyl)-4-methyl-2H-pyrrole-2-carboxamide], the “Minimum Inhibitory Concentration” value ([1]; strain 9782) was 50 µg/mL, the “Minimum Inhibitory Concentration” value ([1]; strain 11,111) was 100 µg/mL and the “Minimum Inhibitory Concentration” value [2] was 100 µg/mL. For the same molecule, the “Minimum Inhibitory Concentration” value ([3]; strain 2400) was > 200 µg/mL, the “Minimum Inhibitory Concentration” value ([3]; strain 2661) was > 200 µg/mL and the “Minimum Inhibitory Concentration” value ([3]; strain 10,165) was 100 µg/mL. For the same molecule, the “Minimum Inhibitory Concentration” value ([3]; strain 11,239) was 100 µg/mL, the “Minimum Inhibitory Concentration” value [4] was 100 µg/mL and the “Minimum Inhibitory Concentration” value [5] was 50 µg/mL. The “Minimum Inhibitory Concentration” value [6] was 50 µg/mL, the “Minimum Inhibitory Concentration” value ([7]; strain 10,404) was 50 µg/mL and the “Minimum Inhibitory Concentration” value ([7]; strain 10,857) was 50 µg/mL. For the same molecule, the “Minimum Inhibitory Concentration” value [8] was 50 µg/mL, the “Minimum Inhibitory Concentration” value [9] was 100 µg/mL and the “Minimum Inhibitory Concentration” value [10] was 50 µg/mL. The “Minimum Inhibitory Concentration” value [11] was > 200 µg/mL, the “solubility of B form relative to A form” value [12] was “more soluble” and the “Minimum Inhibitory Concentration” value ([13]; strain 8754) was 100 µg/mL. The “Minimum Inhibitory Concentration” value ([13]; strain 9330) was > 200 µg/mL, the “Minimum Inhibitory Concentration” value ([13]; strain 9545) was 12.5 µg/mL and the “Minimum Inhibitory Concentration” value [14] was 50 µg/mL.

— patent US4339535A, “Process for preparing antibiotic EM 4940” (E. R. Squibb & Sons, Inc., priority 1980, dated 1982)
